From article PMC3479146, “Flanking Residues Are Central to DO11.10 T Cell Hybridoma Stimulation by Ovalbumin 323–339” (PLoS ONE, 2012)
“And” between values parts separate entries of the source, which are not always exact repeats. Equal entries are not always repeated. Where two headings read alike, the source gives them in different places. Marks after values point to notes of the source that are not given here. Where no end group is shown, it is not given here.

What was measured:
I-A^d = details: cited from earlier work
Description: Table 1 Alternate registers within OVA 323–339. | column: Dissociation rate constants ^a / (k d, s^−1) || Peptide-MHC complex stability correlates broadly with immunogenicity, [21], as stable epitopes are more prevalent on the cell surface, and subsequently more likely to be recognized by responding T cells. Stability is commonly approximated as the dissociation rate of fluorescently labeled peptide from soluble MHC, although this approach can be complicated by highly overlapping registers. […] Supporting the thermodynamic stability of register one, a complex between the 323–339 peptide and I-A^d was cr ... || The HEL epitope consisting of residues 11 through 25 (HEL11-25) has been characterized as a weak MHC binder when presented by I-A^d, with a short half-life of approximately six hours that presumably results from a poorly accommodated arginine side chain in the P1 pocket. We compared the activities of wild type HEL11-25 to a variant in which the native P-4 to P-2 sequence was replaced with OVA-specific residues (QAV13-25) and a control in which these three residues were adjusted to GGS (GGS13-25). Since these changes lengthen the HEL11-25 peptide by a single amino acid, a control in whic ...

[1] = test system: HEL11–25 responsive T cell hybridoma; details: synthetic HEL peptide; A20 + HEL11-25 hybridoma cells, 24 h; IL-2 ELISA; 3-parameter curve fits of aggregate data from at least two experiments
Procedure: We compared the activities of wild type HEL11-25 to a variant in which the native P-4 to P-2 sequence was replaced with OVA-specific residues (QAV13-25) and a control in which these three residues were adjusted to GGS (GGS13-25). Since these changes lengthen the HEL11-25 peptide by a single amino acid, a control in which the HEL11-25 peptide was appended with an N-terminal glycine in position P-3 (G11-25) was also analyzed.
Each well of a 96-well plate was seeded with 15,000 A20 cells, 15,000 T cell hydridoma cells and peptide, malE chimera protein or control peptide/protein per well in DMEM media without L-glutamine, except where noted. After a 24-hour incubation at 37°C, 5% CO2, supernatant was transferred to a new plate and stored at −80°C prior to IL-2 quantification assays. All peptide/protein doses were performed in triplicate wells and all experiments replicated at least twice.
For malE chimeras and control protein experiments, the relevant protein was thawed, concentrated using 30K molecular weight cut-off centrifugal filter units (Millipore UFC903024) and filter-sterilized. Proteins were then quantified via absorbance at 280 nm using a predicted extinction coefficient and molecular weight, diluted to equal concentrations, the concentration confirmed and serially diluted in 96-well plates. […] Proteins were pre-incubated for four hours with antigen presenting cells (A20 or 3A5) cells prior to a 24-hour incubation with T cell hybridomas. The IL-2 concentration in the supernatant was quantified using a matched pair ELISA quantified with an IL-2 standard as described (BD #555148). All experiments were performed at least twice, and all wells were measured in triplicate. Data was analyzed with Graphpad Prism 5 (La Jolla, CA).

DO11.10 T cell hybridoma [2] = assay: DO11.10 hybridoma IL-2 secretion with A20 antigen presenting cells and exogenous OVA peptide variants; type: cell-based, murine; details: synthetic peptide; 15,000 A20 + 15,000 DO11.10 cells per well, 24 h, 37°C, DMEM without L-glutamine; IL-2 by matched pair ELISA; 3-parameter curve fits of aggregate data from at least two experiments
Procedure: Two previous reports described anchor substitutions to stabilize register four. […] To assess the relative success of these attempts, we synthesized both variants, along with an N-terminally truncated version of the Robertson peptide (328–339 EIVS; Table 2) to remove the effects of flanking residues which we hypothesized would promote register masking. To assess peptide activity, DO11.10 hybridomas were incubated for 24 hours with I-A^d+ A20 lymphoma cells in the presence of peptide, and supernatant was subsequently assessed for the presence IL-2 by a matched pair ELISA as a measure of T cell activation. […]
(§1) Each well of a 96-well plate was seeded with 15,000 A20 cells, 15,000 T cell hydridoma cells and peptide, malE chimera protein or control peptide/protein per well in DMEM media without L-glutamine, except where noted. After a 24-hour incubation at 37°C, 5% CO2, supernatant was transferred to a new plate and stored at −80°C prior to IL-2 quantification assays. […]
For malE chimeras and control protein experiments, the relevant protein was thawed, concentrated using 30K molecular weight cut-off centrifugal filter units (Millipore UFC903024) and filter-sterilized. Proteins were then quantified via absorbance at 280 nm using a predicted extinction coefficient and molecular weight, diluted to equal concentrations, the concentration confirmed and serially diluted in 96-well plates. […]

DO11.10 T cell hybridoma [3] = assay: DO11.10 hybridoma IL-2 secretion with A20 cells and malE chimeras containing OVA epitope variants; type: cell-based, murine; details: malE chimera protein pre-incubated 4 h with A20 cells, then 24 h with DO11.10, IL-2 ELISA, 3-parameter curve fits of aggregate data from at least two experiments
Description: Peptide sequences were introduced into the exposed loop in place of residues 133–140 as first described by Martineau et al., with a glycine-serine extension (GSGSG) appended to the N-terminus of inserted epitopes to increase solubility (Figure 3A, Table 4). The activity of the N-terminally truncated peptides in MBP (325–337, 327–337, 328–337) indicates a maintained preference for wild type flanking residues as was previously observed with synthetic peptides (Figure 3A, Table 4). […] The increased activity of variants retaining the wild type P-3 and P-4 residues of register four during intracellular processing again supports their direct role in mediating the peptide and MHC interaction. […]
as §1
For malE chimeras and control protein experiments, the relevant protein was thawed, concentrated using 30K molecular weight cut-off centrifugal filter units (Millipore UFC903024) and filter-sterilized. […] The IL-2 concentration in the supernatant was quantified using a matched pair ELISA quantified with an IL-2 standard as described (BD #555148). […]

[4] = apparent first order dissociation constant of presumed isolated register from purified I-A^d, single exponential fits to monophasic dissociation data

AMKRHGLDNYRGYSL [HEL11-25]
half-life when presented by I-A^d (I-A^d): approximately six | Max response (ng/ml IL-2) [1]: 0.7 ng/ml IL-2

325–336: literature OVA 325–336 peptide used for register 3 dissociation
Dissociation rate constants (k d, s^−1) (I-A^d; [4]): 2.6e-06 s⁻¹

GAMKRHGLDNYRGYSL [Peptide G11-25]
Max response (ng/ml IL-2) [1]: 0.7 ng/ml IL-2

GGSKRHGLDNYRGYSL [GGS13-25]
Max response (ng/ml IL-2) [1]: 0.5 ^* ng/ml IL-2

QAVKRHGLDNYRGYSL [QAV13-25]
Max response (ng/ml IL-2) [1]: 1.5 ng/ml IL-2 and 1.5 ^* ng/ml IL-2

327–339 V327K: literature OVA 327–339 peptide with lysine at position 327, used for register 4 dissociation
Dissociation rate constants (k d, s^−1) (I-A^d; apparent first order dissociation constant from purified I-A^d, back-calculated from reported half-life of dissociation): 0.0006 s⁻¹ | half-life of peptide dissociation from I-A^d (I-A^d; register four core truncated at P-2, P-2 valine altered to lysine): around twenty

ISQAVHAAHAEINEAGR [323–339]
EC50 (DO11.10 T cell hybridoma [2]): 1.6 µM

MalE chimera 325–337: maltose binding protein with OVA 325–337 replacing malE residues 133–140
Max response (ng/ml IL-2) (DO11.10 T cell hybridoma [3]): 1.1 ^* ng/ml IL-2 | EC50 (DO11.10 T cell hybridoma [3]; read-out: EC50 (µM peptide)): 18 µM

323–335 Q325A: literature OVA 323–335 peptide with alanine at position 325, used for register 1 dissociation
Dissociation rate constants (k d, s^−1) (I-A^d; [4]): 2.3e-06 s⁻¹
